Source: patent publication US20220298541A1, “ASSAY FOR DETERMINING TARGET ENGAGEMENT IN REAL-TIME IN LIVING SYSTEMS” (Indian Institute of Science Education and Research, priority 2021, published 2022)
Blank lines part the entries; values can stand above or below the molecule they belong to. Residues, ends and D or L forms follow the SMILES beside them. *: point of attachment. Cbz = O=C(OCc1ccccc1)*; CH2F = FC*

Experiments:
caspase-3 [1] = target: T1, caspase-3 (Homo sapiens, UniProt P42574); test: Screening protease inhibitors by BRET-approach of AbRGT in 96 well plates, caspase-3 RLuc transfected MCF-7 cells; format: cell-based
T1 construct: expressed in transfected cells; host or cells: MCF-7 (caspase-3 null); 2 in A4
T1 sequence (P42574 29-175 limits assumed): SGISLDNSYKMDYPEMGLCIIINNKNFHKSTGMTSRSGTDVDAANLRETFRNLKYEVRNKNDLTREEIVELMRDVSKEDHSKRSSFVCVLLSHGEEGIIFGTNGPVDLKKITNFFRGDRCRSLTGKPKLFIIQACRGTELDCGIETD
T1 sequence (P42574 176-277 limits assumed): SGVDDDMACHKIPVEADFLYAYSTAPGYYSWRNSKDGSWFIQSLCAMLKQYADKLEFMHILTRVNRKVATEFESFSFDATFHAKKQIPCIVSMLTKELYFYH
From the text: To show BRET-approach of AbRGT can be used for the high-throughput screening of inhibitors four different inhibitors; Z-VAD-FMK, C-inhibitor-II, E-64, and Q-VD-OPh were selected. Z-VAD-FMK, E-64, and Q-VD-OPh are irreversible inhibitors, while cpm-VAD-CHO is a reversible inhibitor. Z-VAD-FMK and Q-VD-OPh are widely known pan-caspase inhibitors that inhibit caspases with a different mechanism.
For inhibitor screening in a high-throughput format, caspase-3 RLuc transfected MCF-7 cells in 96 well plates were treated with STS (1 μM) for 4 h. Subsequently, after STS treatment, cells were incubated with Z-VAD-FMK or E64 or Q-VD-OPh inhibitors at two different concentrations (25 or 50 μM) for 1 h. Cells were then labeled with the Rh-VAD-FMK probe for 1 h, followed by the addition of coelenterazine h. Immediately after coelenterazine h addition, average radiance was recorded in the donor emission and the acceptor emission channel. The BRET measurements were done by calculating the mBRET values of each sample.

caspase-3 [2] = test: Quantification of caspase-3 activation using BRET-approach of AbRGT in MCF-7 cells transiently transfected with pCMV-caspase-3-GGSRLuc 8.6; format: cell-based, human; settings: STS 1 μM for 4 h; transiently transfected MCF-7 cells; Rh-VAD-FMK probe; untreated control 11±9.2
Procedure: To determine the specific caspase-3 activation, pCMV-caspase-3-GGSRLuc 8.6 plasmid was overexpressed in the MCF-7 cell line since it is caspase-3 null. The cells were subjected to treatment with Staurosporine (STS) (1 μM) for 4 h for the induction of apoptosis. […] Subsequently, cells were incubated with ABFP, Rh-VAD-FMK probe (BRET acceptor) for the labeling of PoI, and other proteases of the same family. The RLuc 8.6 substrate coelenterazine h was added to the cells, and the average radiance was recorded in the donor emission channel, RLuc 8.6 (520-540 nm), and the acceptor emission channel, rhodamine (580-600 nm) channel. The BRET measurements were done by calculating the mBRET values for the STS treated versus untreated samples using the following equation.^7 Here, acceptor and donor is represented by (A) and (D), respectively.

caspase-3 [3] = test: Quantification of caspase-3 activation in Caspase-3 RLuc expressing stable MCF-7 clone no. 2 by BRET-approach of AbRGT; format: cell-based, human
Procedure: Luciferase activity in the MCF7 Caspase3-GGS-RLuc8.6 clone no. 2, 3, 4 was measured by the addition of luciferase substrate, coelentrazine. Immediately after substrate addition, average radiance value was recorded and plotted as a bar graph (FIG. 4.8). […] The caspase-3 activity in the clone 2 cells further quantified by the BRET-approach of AbRGT. MCF-7 Caspase3-GGS-RLuc8.6 clone no. 2 cells were treated with increasing concentration (0, 50, 100, and 200 nM) of STS for 4 h. Subsequently, cells were incubated with Rh-VAD-FMK probe for 1 h followed by the addition of coelentrazine h. Immediately after substrate addition, average radiance was recorded at donor and acceptor filters and the mBRET values were calculated and plotted as a bar graph (FIG. 9).

caspase-3 [4] = target: T1, caspase-3; test: Effect of protease inhibitor on STS dependent caspase activation (BRET based AbRGT, Rh-VAD-FMK probe); format: cell-based; settings: STS 0-4 μM followed by 1 h treatment with 50 μM Z-VAD-FMK; transiently transfected cells
Procedure: To check the effect of protease inhibitor Z-VAD-FMK on caspase activation, the pCMV-caspase-3-GGS-RLuc8.6 transiently transfected cells were treated with increasing concentration of STS(0-4 μM) followed by 1 h treatment of 50 μM of Z-VAD-FMK. The caspase3 activation was checked by BRET based AbRGT approach by using Rh-VAD-FMK probe. […] Thus we can use the BRET-approach of AbRGT to screen caspase inhibitors and activators. (FIG. 6).

Compound: CN[C@@H]1C[C@H]2O[C@@](C)([C@@H]1OC)n1c3ccccc3c3c4c(c5c6ccccc6n2c5c31)C(=O)NC4 [STS, Staurosporine]
mBRET value of the sample in the absence of inhibitor (caspase-3 [1]; STS 1 μM for 4 h, no inhibitor, 96 well plate): 60±0.4
mBRET value (indirect readout of specific caspase-3 activation) (caspase-3 [2]): 60±0.4
change of mBRET values with increasing STS concentration (caspase-3 [3]; 0, 50, 100 and 200 nM STS for 4 h, clone no. 2): increase
increase in mBRET as compared to the untreated cells (caspase-3 [3]; 200 nM STS for 4 h, MCF-7 Caspase3-GGS-RLuc8.6 clone no. 2): ~4 fold

effect on caspase activation in presence of STS compared to only STS treated cells (caspase-3 [4]): inhibits the caspase activation
Compound: COC(=O)C[C@H](NC(=O)[C@H](C)NC(=O)[C@@H](NC(=O)OCc1ccccc1)C(C)C)C(=O)CF [Z-VAD-FMK] (Cbz-Val-Ala-Asp(OMe)-CH2F)

mBRET values as compared to Z-VAD-FMK inhibitor (caspase-3 [1]; STS 1 μM 4 h, then inhibitor 25 or 50 μM for 1 h): higher
Compound: CC(C)[C@H](NC(=O)c1ccc2ccccc2n1)C(=O)N[C@@H](CC(=O)O)C(=O)COc1c(F)cccc1F [Q-VD-OPh]
